Patent US20180354980A1, “NOVEL TRITERPENE-GLYCOSIDES AS SWEETENERS OR SWEETENER ENHANCER” (Analyticon Discovery GmbH, priority 2015, published 2018)

Columns and labels:
[1] = system: panel of 4 panelists; experiment: Organoleptic test of the compounds against sucrose and Pterocaryoside A; type: in vivo; design: key to sweetness compared to sucrose: 3: sweeter than the control solution; 2: sweetness comparable with the control solution; 1: less sweet than the control solution but still sweet; conditions: for sweetness compared to sucrose: 0.4 mg/ml (400 ppm) in non-carbonated mineral water vs sucrose 20 mg/ml, panel of 4 panelists; for comment (bitter off taste): 0.4 mg/ml (400 ppm) in non-carbonated mineral water, compared with Pterocaryoside A
Description: (§1) The isolated pure compounds were dissolved in non-carbonated mineral water (“Fonsana Quelle”) in a concentration of 0.4 mg/ml (400 ppm). The sweet taste of each sample was compared by a panel of 4 panelists with a solution of sucrose in a concentration of 20 mg/ml.

[2] = in vivo; cited from earlier work
[3] = Solubility in non-carbonated mineral water at the test concentration; type: physicochemical; conditions: 0.4 mg/ml in non-carbonated mineral water
Description: as §1

[4] = system: panel; conditions: ammonium salt; panel rating; cited from earlier work

Row | Compound | sweetness compared to sucrose [1] | comment (bitter off taste) [1] | also measured
1 | C=C(C)C(O)C(O)CC(C)(O)C1CCC2(C)C1C(O[C@@H]1OCC(O)[C@H](O)[C@H]1O)CC1C(C)(CCC(=O)O)C(C(=C)C)CCC12C (stereo in doubt) [Compound D, 3-(6,9a,9b-trimethyl-7-(prop-1-en-2-yl)-3-(2,4,5-trihydroxy-6-methylhept-6-en-2-yl)-4-((2S,3R,4S,5S)-3,4,5-trihydroxytetrahydro-2H-pyran-2-yloxy)dodecahydro-1H-cyclopenta[a]naphthalen-6-yl)propanoic acid] | 3 | less bitter than Pterocaryoside A | –
2 | C=C(C)C1CCC2(C)C(CC(O[C@@H]3OC[C@H](O)[C@H](O)[C@H]3O)C3C(C4(C)CCC(C(C)(C)O)O4)CCC32C)C1(C)CCC(=O)O (stereo partly drawn) [Compound A, 3-(3-(5-(2-hydroxypropan-2-yl)-2-methyltetrahydrofuran-2-yl)-6,9a,9b-trimethyl-7-(prop-1-en-2-yl)-4-((2S,3R,4S,5S)-3,4,5-trihydroxytetrahydro-2H-pyran-2-yloxy)dodecahydro-1H-cyclopenta[a]naphthalen-6-yl)propanoic acid] | 3 | less bitter than Pterocaryoside A | –
3 | C=C(C)C(O)CCC(C)(O)C1CCC2(C)C1C(OC1OC(COC(C)=O)C(O)C1O)CC1C(C)(CCC(=O)O)C(C(=C)C)CCC12C (stereo not drawn) [Compound B, 3-(4-(5-(acetoxymethyl)-3,4-dihydroxytetrahydrofuran-2-yloxy)-3-(2,5-dihydroxy-6-methylhept-6-en-2-yl)-6,9a,9b-trimethyl-7-(prop-1-en-2-yl)dodeca hydro-1H-cyclopenta[a]naphthalen-6-yl)propanoic acid] | 1 | slightly bitter off taste comparable to | –
4 | C=C(C)C(O)C(O)CC(C)(O)C1CCC2(C)C1C(O[C@@H]1O[C@H](C)[C@@H](O)[C@H](O)[C@H]1O)CC1C(C)(CCC(=O)O)C(C(=C)C)CCC12C (stereo partly drawn) [Compound C, 3-(6,9a,9b-trimethyl-7-(prop-1-en-2-yl)-3-(2,4,5-trihydroxy-6-methylhept-6-en-2-yl)-4-((2R,3R,4S,5S,6R)-3,4,5-trihydroxy-6-methyltetrahydro-2H-pyran-2-yloxy)dodecahydro-1H-cyclopenta[a]naphthalen-6-yl)propanoic acid] | 3 | less bitter than Pterocaryoside A | –
5 | C=C(C)C1CCC2(C)C(CC(O[C@@H]3OC[C@H](O)[C@H](O)[C@H]3O)C3C(C(C)=O)CCC32C)C1(C)CCC(=O)O (stereo partly drawn) [Compound E, 3-(3-acetyl-6,9a,9b-trimethyl-7-(prop-1-en-2-yl)-4-((2S,3R,4S,5S)-3,4,5-trihydroxytetrahydro-2H-pyran-2-yloxy)dodecahydro-1H-cyclopenta[a]naphthalen-6-yl)propanoic acid] | 3 | less bitter than Pterocaryoside A | –
6 | C[C@H](CC[C@@H](O[C@@H]1O[C@H](CO[C@@H]2O[C@H](CO)[C@@H](O)[C@H](O)[C@H]2O)[C@@H](O)[C@H](O)[C@H]1O[C@@H]1O[C@H](CO)[C@@H](O)[C@H](O)[C@H]1O)C(C)(C)O)[C@H]1CC[C@@]2(C)[C@@H]3CC=C4[C@@H](CC[C@H](O[C@@H]5O[C@H](CO)[C@@H](O[C@@H]6O[C@H](CO)[C@@H](O)[C@H](O)[C@H]6O)[C@H](O)[C@H]5O)C4(C)C)[C@]3(C)[C@H](O)C[C@]12C [iso-mogroside V] | – | – | aftertaste [2]: certain bitter aftertaste
7 | C[C@H](CC[C@@H](O[C@@H]1O[C@H](CO[C@@H]2O[C@H](CO)[C@@H](O)[C@H](O)[C@H]2O)[C@@H](O)[C@H](O)[C@H]1O[C@@H]1O[C@H](CO)[C@@H](O)[C@H](O)[C@H]1O)C(C)(C)O)[C@H]1CC[C@@]2(C)[C@@H]3CC=C4[C@@H](CC[C@H](O[C@@H]5O[C@H](CO[C@@H]6O[C@H](CO)[C@@H](O)[C@H](O)[C@H]6O)[C@@H](O)[C@H](O)[C@H]5O)C4(C)C)[C@]3(C)[C@H](O)C[C@]12C [mogroside V] | – | – | aftertaste [2]: certain bitter aftertaste
8 | Pterocaryoside A | – | strong bitter and slightly hot off-taste | sweetness compared with the sucrose solution (in words) ([1]; solution at desired 0.4 mg/ml, not completely dissolved, vs sucrose 20 mg/ml): comparable to the sweetness of the sucrose solution; solubility at the desired concentration [3]: not completely soluble; off-taste [4]: persistent, mildly bitter, off-taste; onset of sweetness [4]: instantaneous; sweetness relative to sucrose [4]: about 50 times sweeter than 2% sucrose
9 | Pterocaryoside B | – | – | off-taste [4]: persistent, mildly bitter, off-taste; onset of sweetness [4]: instantaneous; sweetness relative to sucrose [4]: about 100 times sweeter than 2% sucrose
